Assay in all cases: NCI tumour cell line growth inhibition, 48 h
The subject of assay [1] is KM20L2 colon.
Assay [2] deals with LXFL 529 NSCLC.
For assay [3], the system named is M19-MEL melanoma.
The test system of assay [4] is DMS 114 small cell lung.
In assay [5] the test system is HOP-18 NSCLC.
Assay [6] deals with DMS 273 small cell lung.
Assay [7] concerns DU-145 prostate.
Assay [8] deals with MCF7 breast.
In assay [9] the test system is MDA-MB-231 breast.
For assay [10], the system named is NCI/ADR-RES ovarian.
In assay [11] the test system is T-47D breast.

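Results reflect a 48-hour exposure of cells in 96-well plates to compound at five concentrations. Abbreviation: GI50, concentration required for 50% inhibition of growth. Definition used: TGI = concentration required for complete inhibition of growth.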 Bounds are passed on as bounds.

As for `CC(=O)[CH-]C(=O)c1ccccc1.CC(=O)[CH-]C(=O)c1ccccc1.Cl.[O-]c1ccccn1.[O-]c1ccccn1.[Ti+4]`, the GI50 in assay [1], in assay [2] and in assay [3] was more than 100 µM throughout. Besides, the TGI in assay [1], in assay [2] and in assay [3] was more than 100 µM each time.
Regarding `CSc1nc(NC2OC(COC(C)=O)C(OC(C)=O)C(OC(C)=O)C2OC(C)=O)c(-c2csc(N)n2)c(=O)n1C` (stereo not drawn), the TGI in assay [4], in [5], in assay [1], in assay [2] and in assay [3] was more than 100 µM each time.
Consider `C#CC1(O)c2ccccc2C(=O)c2ccccc21`, for which the TGI in assay [6], in [5], in [1], in assay [2] and in assay [3] was more than 100 µM throughout.
With `O=[N+]([O-])c1ccc(/C=C/c2csnn2)cc1`, the TGI in assay [4], in [5], in assay [2] and in [3] was more than 100 µM each time.
For the compound `O=C1Nc2ccccc2/C1=C\c1nc(C2CCN(S(=O)(=O)c3ccc(F)cc3)CC2)n2ccccc12`, the GI50 was 4.35 µM in assay [7]; 5.72 µM in assay [8]; 2.9 µM in assay [9]; 3.43 µM in assay [10]; 4.57 µM in [11]. The TGI is more than 100 µM in assay [7]; more than 100 µM in assay [8]; 60.8 µM in [9]; more than 100 µM in assay [10]; more than 100 µM in assay [11].
On to `CN1CCN(c2nc(NCCCNc3ccnc4cc(Cl)ccc34)c3ccccc3n2)CC1`, for which the GI50 is 6.11 µM in assay [7]; 2.37 µM in assay [8]; 2.76 µM in assay [9]; 22 µM in assay [10]; 2.39 µM in assay [11]. In addition, the TGI is 18.4 µM in assay [7]; 13.2 µM in assay [8]; 8.94 µM in assay [9]; 59.1 µM in assay [10]; 6.73 µM in assay [11].
For the compound `NC(N)=Nc1nc2ccc([N+](=O)[O-])cc2[nH]1`, the TGI in assay [7], in assay [8], in assay [9], in assay [10] and in [11] was more than 100 µM in each case.
As for `Oc1ccc(CCNCc2cc3c(cc2Br)OCO3)cc1`, the TGI in assay [7], in assay [8], in assay [9], in assay [10] and in assay [11] was more than 100 µM in each case.
As for `CCOC(=O)[C@H]1Nc2ccc([N+](=O)[O-])cc2C2c3ccccc3CC21` (stereo partly drawn), the TGI in [4] worked out at 54 µM; in assay [6] it was 34.9 µM; in [1], 54 µM; in assay [2] it was 49.3 µM; in assay [3] it was 70.7 µM.
Regarding `CCCCN(CCCC)CCC(O)c1cc2c(Cl)cc(Cl)cc2c2cc(C(F)(F)F)ccc12` (stereo not drawn), the TGI was found to be 22 µM in [7]; 24.9 µM in assay [8]; 15.3 µM in assay [9]; 26.1 µM in assay [10]; 28.9 µM in [11].
As for `Cc1[nH]c(-c2nc3ccccc3[nH]2)c(C)c1C(=O)NC(C)C1CCCCC1` (stereo not drawn), the GI50 is 14.6 µM in assay [7]; 4.01 µM in [8]; 10.4 µM in assay [9]; 10.2 µM in [10]; 12.4 µM in [11]. The TGI amounted to 28.2 µM in assay [7]; 19.2 µM in [8]; 29.4 µM in assay [9]; 28 µM in assay [10]; 39.2 µM in assay [11].
For `CCCCNC(=O)c1cc(NCc2cc(O)ccc2O)ccc1O`, the GI50 in [7] is 15.9 µM; in [8], 12.4 µM; in assay [9], 7.41 µM; in assay [10], 25 µM; in [11], 6.39 µM. Besides, the TGI in [7] is 29.6 µM; in assay [8] it was 39.8 µM; in [9], 21.7 µM; in [10], more than 100 µM; in [11], 39.1 µM.
Regarding `O=[n+]1c2ccccc2n([O-])c2cc(Cl)ccc21`, the GI50 was 11.3 µM in assay [7]; 3.72 µM in assay [8]; 4.21 µM in assay [9]; 4.31 µM in assay [10]; 1.96 µM in assay [11]. The TGI in [7] came out at 24.1 µM; in assay [8], 16.1 µM; in [9], 22.2 µM; in [10], 40.3 µM; in assay [11] it was 11.7 µM.
With `COc1cc(N2CCN(C(C)C)CC2)ccc1Nc1nc(Nc2cccc(F)c2C(=O)O)c2cc[nH]c2n1`, the GI50 in assay [7], in assay [8], in assay [9], in [10] and in assay [11] was more than 25 µM throughout. For the same compound, the TGI in assay [7], in assay [8], in assay [9], in [10] and in assay [11] was more than 25 µM throughout.
Take `CCN(CC)CCN(Cc1ccc(F)cc1)c1ccc(CO)c(Cl)c1`: the GI50 in assay [7] was 9.97 µM; in assay [8], 4.55 µM; in assay [9] it was 12.2 µM; in assay [10], 9.64 µM; in assay [11], 7.05 µM. Also, the TGI was more than 73.8 µM in [7]; 85.5 µM in [8]; 54.2 µM in assay [9]; 50.2 µM in assay [10]; more than 62.6 µM in assay [11].
With `COc1ccc(/C=C2\CN(Cc3cn(CCNc4ccnc5cc(Cl)ccc45)nn3)C/C(=C\c3ccc(OC)c(OC)c3)C2=O)cc1OC`, the GI50 in [7] was 3.48 µM; in [8], 3.3 µM; in assay [9], 2.56 µM; in assay [10], more than 100 µM; in assay [11], 5.05 µM. Further, the TGI in [7] was 11 µM; in assay [8] it was 16 µM; in [9], 7.68 µM; in [10] it was more than 100 µM; in assay [11] it was more than 100 µM.
With `Cc1[nH]nc2c1N=C(c1ccccc1F)c1cc(C(N)=O)ccc1N2`, the GI50 in assay [7] is 6.71 µM; in [8], 0.592 µM; in [9], 6.8 µM; in assay [10] it was more than 25 µM; in [11], 2.89 µM. For the same compound, the TGI was more than 25 µM in assay [7]; more than 20 µM in assay [8]; more than 25 µM in assay [9]; more than 25 µM in [10]; more than 15.8 µM in assay [11].
As for `O=S(=O)([O-])[O-].[Cl-].[NH2-].[NH2-].[NH2-].[NH2-].[Ru+3].c1ccncc1`, the TGI in assay [6], in [1] and in assay [2] was more than 100 µM in each case.
As for `C[C@]1(Cn2ccnn2)C(C(=O)O)N2C(=O)CC2S1(=O)=O` (stereo partly drawn), the GI50 in [7], in [8], in [9], in assay [10] and in [11] was more than 100 µM in each case. Moreover, the TGI in assay [7], in assay [8], in [9], in assay [10] and in assay [11] was more than 100 µM throughout.
With `Cc1ccn2c(CCc3nnc4cc(C)ccn34)nnc2c1`, the TGI in [7], in assay [8], in assay [9], in assay [10] and in assay [11] was more than 100 µM in each case.
`Cc1cc2nc3cc(C)c(N)cc3[n+](-c3ccccc3)c2cc1N`: the GI50 in assay [7] is 7.89 µM; in assay [8], 2.48 µM; in assay [9] it was 20.5 µM; in assay [10], more than 100 µM; in [11], 1.8 µM. Besides, the TGI in [7] was more than 100 µM; in [8] it was more than 100 µM; in [9] it was more than 100 µM; in [10], more than 100 µM; in [11], 19.9 µM.
Consider `O=c1c(Br)cc2c(-c3ccccc3)c3cc(Br)c(O)c(Br)c3oc-2c1Br`, for which the TGI in assay [7], in [8], in assay [9], in assay [10] and in assay [11] was more than 100 µM each time.
Regarding `CN1CCN(Cc2ccc(NC(=O)c3cncc(C#Cc4cncc5nccnc45)c3)cc2C(F)(F)F)CC1`, the GI50 is 3.22 µM in assay [7]; 2.35 µM in assay [8]; 0.869 µM in assay [9]; 6.68 µM in assay [10]; 5.61 µM in [11]. Moreover, the TGI is 9.6 µM in [7]; 10.1 µM in [8]; 4.59 µM in assay [9]; 25.1 µM in assay [10]; 14.9 µM in [11].
Consider `COc1cc2c(cc1OC)NC(=O)NC(Cc1ccc3c(c1)OCO3)CC2` (stereo not drawn), for which the TGI in assay [4], in assay [6], in assay [1], in assay [2] and in assay [3] was more than 100 µM in each case.
As for `CCc1cc2ncc(CN3CCN(c4ccc(C(=O)NC)nc4)CC3)cc2[nH]c1=O`, the GI50 in [7] is more than 100 µM; in assay [8] it was 29.4 µM; in assay [9], 82 µM; in assay [10], more than 100 µM; in assay [11] it was 28.2 µM. The TGI in assay [7], in [8], in assay [9], in assay [10] and in [11] was more than 100 µM in each case.

The values above are taken from PubChem BioAssay (NCI).
